What was measured:
normal endometrial cells = assay: CellTiter 96 AQueous One Solution (MTS) cytotoxicity assay, 48 h, normal cells; format: cell-based; details: 48 hours of treatment, read-out: Potencies (EC50 values) of Growth Inhibition Activity, Normal Endometrium
Procedure: (§1) The CellTiter 96 AQueous One Solution Cell Proliferation Assay (Promega) was used to measure living cells remaining after 48 hours of incubation with or without a range of concentrations for the heteroarotinoids. MTS [3-(4,5-dimethylthiazol-2-yl)-5-(3-carboxymethoxyphenyl)-2-(4-sulfophenyl) -2H-tetrazolium, inner salt], a novel tetrazolium compound, was added to each well and incubated for 4 hours, followed by addition of a solublization/stop solution. After overnight incubation, the optical density (OD) of each well was determined by measuring the absorbance at 540 nm using a Dynex MRX Revelation microtiter plate reader. Treatments were performed in triplicate, and the growth indices were derived by dividing the average OD540 of each treatment by the average OD540 of control cultures. The results represent the average and standard error of two to three independent experiments.
(§2) The A2780 ovarian cancer cells were cultured in RPMI media, and normal endometrial cells were cultured in MEM media. Both media contained fetal bovine serum (FBS), sodium pyruvate, and antibiotic/antimycotic. The normal endometrial cells were collected from a healthy premenopausal […] and used prior to passage as previously described.

[1] = tested on: A2780 ovarian cancer cells; assay: CellTiter 96 AQueous One Solution (MTS) cytotoxicity assay, 48 h, A2780; format: cell-based; details: for EC50: Homo sapiens, A2780 ovarian cancer cells, 48 hours of treatment, read-out: Potencies (EC50 values) of Growth Inhibition Activity, A2780 Ovarian Cancer; for Growth inhibition of ovarian cancer cultures (in words): A2780, Fig. 4; for Differential effects on cancer cells versus normal cells (therapeutic window): A2780 versus normal endometrial cells, Fig. 4C and Table 4
Procedure: as §1, §2
The abilities of the new heteroarotinoids to inhibit cancer growth were compared by growing the ovarian cancer cell line (A2780) in the absence and presence of various concentrations of the different compounds. The amount of cells remaining after 48 hours of treatment was measured using a cytotoxicity assay. The optical density (OD) endpoint of the assay represents the number of cells remaining after 48 hours of treatment. The Growth Index was derived by dividing the OD of treated cultures by the OD of untreated cultures. The results are presented in graphic form where Growth Index on the y axis represents the number of cells remaining after 48 hours of treatment relative to untreated controls, and the x axis represents the concentration of drug added. The lower the Growth Index, the greater the growth inhibition.

[2] = design: method as in PMID 16534614; details: preliminary evidence; cited from earlier work
cancerous cell phenotype = tested on: cancerous cell phenotype; design: method as in PMID 11287445; details: at 3 μM; cited from earlier work
[3] = design: method as in PMID 16534614; details: cited from earlier work
[4] = preclinical testing; cited from earlier work
A2780 cells = assay: Annexin-V-FITC / propidium iodide apoptosis assay (flow cytometry); format: cell-based; details: 10 µM, 24 hours
Procedure: Cells were plated in 6-well tissue culture dishes at a cell density of 1 x 10^5 cells/well. After allowing cells to adhere to the dishes overnight, parallel cultures were treated with varying concentrations of heteroarotinoids or the same volume of DMSO solvent for 24 hours. The Vybrant™ Apoptosis Assay Kit #3 (Molecular Probes) was then utilized to measure apoptosis and necrosis. Tissue culture medium in each well was collected to harvest cells that had already lifted off the tissue culture plate. These were combined with adherent cells that were harvested by trypsinization. The cells were pelleted by centrifugation and resuspended in 100 μL of 1X annexin-binding buffer, and then they were incubated with 5 µl of annexin V conjugated to fluorescein (Annexin-V-FITC) and 1 µL of 100 µg/mL propidium iodide (PI) for 15 minutes at room temperature. The solution was then mixed gently with an additional 400 µl of 1X annexin-binding buffer, and the samples were evaluated with a FACSCalibur (Becton Dickinson) automated benchtop flow cytometer at an excitation wavelength of 488 nm with observation wavelengths of 530 nm and 575 nm. Flow cytometry data were quantified using Summit for MoFlo Acquisition and Sort Control Software (Cytomation, Inc). […]

[5] = design: method as in PMID 9357524; details: mice; cited from earlier work

| Compound | EC50 (normal endometrial cells) | melting point | EC50 [1] | Growth inhibition of ovarian cancer cultures (in words) [1] | Differential effects on cancer cells versus normal cells (therapeutic window) [1] | other results |
| --- | --- | --- | --- | --- | --- | --- |
| Cc1ccc2cc(NC(=O)Nc3ccc([N+](=O)[O-])cc3)ccc2n1 [Compound 9b, 1-(2-Methylquinolin-6-yl)-3-(4-nitrophenyl)urea] | > 1000 µM | 241 to 242 °C | 7.86 µM | – | – | – |
| CC1(C)CC(C)(C)c2cc(NC(=S)Nc3ccc([N+](=O)[O-])cc3)ccc2S1 [Compound 10a, [4-nitrophenylamino][(2,2,4,4-tetramethylthiochroman-6-yl)amino]methane-1-thione] | 2.97 µM | – | 1.72 µM | micromolar range | differential effects | Concentrations achieved and maintained in animal models [2]: micromolar concentrations; Effects on differentiation (cancerous cell phenotype): normalization of the cancerous cell phenotype and induction of orderly tissue architecture; Binding to proteins in mouse plasma [3]: binds strongly; Toxicity, skin irritancy, teratogenicity [4]: without evidence of toxicity, skin irritancy, or teratogenicity |
| CC1(C)CC(C)(C)c2cc(NC(=O)Nc3ccc([N+](=O)[O-])cc3)ccc2S1 [Compound 10c, 1-(2,2,4,4-Tetramethylthiochroman-6-yl)-3-(4-nitrophenyl)urea] | 2.29 µM | – | 1.02 µM | micromolar range | differential effects | Induction of apoptosis (Annexin-V-FITC staining) (A2780 cells): induces positive staining for Annexin-V-FITC; Degree of apoptosis induced, 10c compared with 10a (A2780 cells; Fig. 5C): slightly higher |
| CCOC(=O)c1ccc(NC(=O)Nc2ccc3nc(C)ccc3c2)cc1 [Compound 9c, Ethyl 4-[3-(2-Methylquinolin-6-yl)ureido]benzoate] | > 1000 µM | – | 4.88 µM | – | – | – |
| CC1=C(/C=C/C(C)=C/C=C/C(C)=C/C(=O)O)C(C)(C)CCC1 [Compound 1, trans-retinoic acid] | – | – | – | – | – | maximum tolerated dose (MTD) [5]: 10 mg/kg/day |
| Cc1ccc2cc(NC(=S)Nc3ccc([N+](=O)[O-])cc3)ccc2n1 [Compound 9a, 1-(2-Methylquinolin-6-yl)-3-(4-nitrophenyl) thiourea] | > 1000 µM | 113 to 115 °C | 5 µM | – | – | – |

From article PMC2709466, “Heteroarotinoids with Anti-Cancer Activity Against Ovarian Cancer Cells” (The Open Medicinal Chemistry Journal, 2007)
